Experimental findings from paper PMC10123126, “Insights into translocation mechanism and ribosome evolution from cryo-EM structures of translocation intermediates of Giardia intestinalis” (Nucleic Acids Research, 2023) are described below.

The target of this assay is T1, eEF2 (Giardia duodenalis, UniProt A8BU59).
T1 construct: gene GL50803_0017570; GDP in G domain (domain I)
Put plainly: cryo-EM structure. In kind it is binding.

T1 sequence (A8BU59 1-898): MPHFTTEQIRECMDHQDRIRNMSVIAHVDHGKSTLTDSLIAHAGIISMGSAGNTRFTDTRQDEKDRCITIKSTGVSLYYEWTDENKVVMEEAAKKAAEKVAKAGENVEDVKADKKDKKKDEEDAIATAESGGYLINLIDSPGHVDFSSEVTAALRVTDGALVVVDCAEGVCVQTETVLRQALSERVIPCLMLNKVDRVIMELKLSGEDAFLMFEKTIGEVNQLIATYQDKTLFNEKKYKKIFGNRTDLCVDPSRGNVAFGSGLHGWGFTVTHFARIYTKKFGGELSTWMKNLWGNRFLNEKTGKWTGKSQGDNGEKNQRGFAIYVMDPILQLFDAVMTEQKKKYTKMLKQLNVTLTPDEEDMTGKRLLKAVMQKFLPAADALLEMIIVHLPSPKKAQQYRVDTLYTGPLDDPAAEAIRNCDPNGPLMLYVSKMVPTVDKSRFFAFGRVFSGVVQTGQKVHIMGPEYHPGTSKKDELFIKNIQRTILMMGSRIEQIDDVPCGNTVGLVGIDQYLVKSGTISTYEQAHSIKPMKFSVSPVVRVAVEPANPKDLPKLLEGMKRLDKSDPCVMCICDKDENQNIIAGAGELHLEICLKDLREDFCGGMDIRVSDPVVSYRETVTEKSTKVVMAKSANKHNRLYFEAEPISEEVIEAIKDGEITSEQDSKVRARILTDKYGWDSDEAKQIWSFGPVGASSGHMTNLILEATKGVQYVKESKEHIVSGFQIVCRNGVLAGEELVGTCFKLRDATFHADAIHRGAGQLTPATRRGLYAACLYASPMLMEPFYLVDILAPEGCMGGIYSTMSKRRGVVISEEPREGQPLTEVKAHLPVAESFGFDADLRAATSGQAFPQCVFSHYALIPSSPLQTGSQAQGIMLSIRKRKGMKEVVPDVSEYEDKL

Turning to `Nc1nc2c(ncn2[C@@H]2O[C@H](COP(=O)(O)OP(=O)(O)O)[C@@H](O)[C@H]2O)c(=O)[nH]1` [GDP], under “ribosome-bound eEF2, state B (chimeric hybrid), G domain, P-loop (G1), G4 and G5 motifs, naturally bound, no inhibitor or analog added”, the cryo-EM structure entry is reported as “We found a clear density of GDP in the G domain of eEF2”.

Consider `O=P(O)(O)O` [Pi], for which, for the setting “ribosome-bound eEF2·GDP, state B, leaving phosphate of GTP hydrolysis, held by H143 of switch-II”, the cryo-EM structure result is on record as “A distinct density of the ‘leaving Pi’ group can be seen”.
